Patent US8133849B2, “Herbicidal compounds” (Syngenta Limited, priority 2007, dated 2012)

What was measured:
Assay in all cases: Example B2 herbicidal action, post-emergence, pots in glasshouse, damage score 0-10
Assay type in all cases: in vivo
Conditions in all cases: application post-emergence, rate 1000 g/ha, evaluated after 13 days
Amaranthus retroflexus = system: Amaranthus retroflexus
Outline: (§1)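 Evaluation took place 13 days post-spray. Treatment used an acetone/water (50:50), 0.5% Tween 20 formulation applied to 8-day-old potted plants, held at 24/16 °C with 14 h light, 65% humidity and twice-daily watering.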

Setaria faberi = system: Setaria faberi
Outline: as §1

Solanum nigrum = system: Solanum nigrum
Outline: as §1

Echinochloa crus-galli = system: Echinochloa crus-galli
Outline: as §1

Ipomea hederaceae = system: Ipomea hederaceae
Outline: as §1

## CC(C)C(=O)OC1=C(c2c(F)cccc2C(F)(F)F)S(=O)(=O)N(CC(F)F)c2nccnc21 [Compound C77]
Amaranthus retroflexus
  AMARE damage score (10=total damage to plant; 0=no damage to plant): 10
Setaria faberi
  SETFA damage score (10=total damage to plant; 0=no damage to plant): 9
Solanum nigrum
  SOLNI damage score (10=total damage to plant; 0=no damage to plant): 10
Echinochloa crus-galli
  ECHCG damage score (10=total damage to plant; 0=no damage to plant): 9
Ipomea hederaceae
  IPOHE damage score (10=total damage to plant; 0=no damage to plant): 10

## C#CCN1c2nccnc2C(OC(=O)C(C)C)=C(c2ccccc2[N+](=O)[O-])S1(=O)=O [Compound C68]
Amaranthus retroflexus
  AMARE damage score (10=total damage to plant; 0=no damage to plant): 0
Setaria faberi
  SETFA damage score (10=total damage to plant; 0=no damage to plant): 0
Solanum nigrum
  SOLNI damage score (10=total damage to plant; 0=no damage to plant): 2
Echinochloa crus-galli
  ECHCG damage score (10=total damage to plant; 0=no damage to plant): 0
Ipomea hederaceae
  IPOHE damage score (10=total damage to plant; 0=no damage to plant): 1

## COc1ccc(Cl)c(C2=C(OC(=O)C(C)(C)C)c3nccnc3N(CC(F)F)S2(=O)=O)c1F [Compound C144]
Amaranthus retroflexus
  AMARE damage score (10=total damage to plant; 0=no damage to plant): 0
Setaria faberi
  SETFA damage score (10=total damage to plant; 0=no damage to plant): 0
Solanum nigrum
  SOLNI damage score (10=total damage to plant; 0=no damage to plant): 4
Echinochloa crus-galli
  ECHCG damage score (10=total damage to plant; 0=no damage to plant): 0
Ipomea hederaceae
  IPOHE damage score (10=total damage to plant; 0=no damage to plant): 7

## CCSC(=O)OC1=C(c2c(C(F)(F)F)ccc(Cl)c2Cl)S(=O)(=O)N(CC(F)F)c2nccnc21 [Compound C135]
Amaranthus retroflexus
  AMARE damage score (10=total damage to plant; 0=no damage to plant): 8
Setaria faberi
  SETFA damage score (10=total damage to plant; 0=no damage to plant): 10
Solanum nigrum
  SOLNI damage score (10=total damage to plant; 0=no damage to plant): 10
Echinochloa crus-galli
  ECHCG damage score (10=total damage to plant; 0=no damage to plant): 7
Ipomea hederaceae
  IPOHE damage score (10=total damage to plant; 0=no damage to plant): 8

## CC(C)(C)C(=O)OC1=C(c2cc(F)c(Cl)cc2Cl)S(=O)(=O)N(CC(F)F)c2nccnc21 [Compound C47]
Amaranthus retroflexus
  AMARE damage score (10=total damage to plant; 0=no damage to plant): 10
Setaria faberi
  SETFA damage score (10=total damage to plant; 0=no damage to plant): 7
Solanum nigrum
  SOLNI damage score (10=total damage to plant; 0=no damage to plant): 10
Echinochloa crus-galli
  ECHCG damage score (10=total damage to plant; 0=no damage to plant): 4
Ipomea hederaceae
  IPOHE damage score (10=total damage to plant; 0=no damage to plant): 7

## CCOC(=O)OC1=C(c2cc(C)ccc2C(F)(F)F)S(=O)(=O)N(CC(F)F)c2nccnc21 [Compound C147, carbonic acid 1-(2,2-difluoro-ethyl)-3-(5-methyl-2-trifluoromethyl-phenyl)-2,2-dioxo-1,2-dihydro-2-λ-6-thia-1,5,8-triaza-naphthalen-4-yl ester ethyl ester]
Amaranthus retroflexus
  AMARE damage score (10=total damage to plant; 0=no damage to plant): 1
Setaria faberi
  SETFA damage score (10=total damage to plant; 0=no damage to plant): 3
Solanum nigrum
  SOLNI damage score (10=total damage to plant; 0=no damage to plant): 9
Echinochloa crus-galli
  ECHCG damage score (10=total damage to plant; 0=no damage to plant): 2
Ipomea hederaceae
  IPOHE damage score (10=total damage to plant; 0=no damage to plant): 9

## O=S1(=O)C(c2cc(C(F)(F)F)ccc2Cl)=C(O)c2nccnc2N1CC(F)F [Compound D16, 3-(2-chloro-5-trifluoromethyl-phenyl)-1-(2,2-difluoro-ethyl)-2,2-dioxo-1,2-dihydro-2-λ-6-thia-1,5,8-triaza-naphthalen-4-ol]
Amaranthus retroflexus
  AMARE damage score (10=total damage to plant; 0=no damage to plant): 10
Setaria faberi
  SETFA damage score (10=total damage to plant; 0=no damage to plant): 2
Solanum nigrum
  SOLNI damage score (10=total damage to plant; 0=no damage to plant): 10
Echinochloa crus-galli
  ECHCG damage score (10=total damage to plant; 0=no damage to plant): 5
Ipomea hederaceae
  IPOHE damage score (10=total damage to plant; 0=no damage to plant): 9

## CC#CCN1c2nccnc2C(OC(=O)SCC)=C(c2c(Cl)ccc(Cl)c2C(F)(F)F)S1(=O)=O [Compound C97]
Amaranthus retroflexus
  AMARE damage score (10=total damage to plant; 0=no damage to plant): 0
Setaria faberi
  SETFA damage score (10=total damage to plant; 0=no damage to plant): 0
Solanum nigrum
  SOLNI damage score (10=total damage to plant; 0=no damage to plant): 6
Echinochloa crus-galli
  ECHCG damage score (10=total damage to plant; 0=no damage to plant): 1
Ipomea hederaceae
  IPOHE damage score (10=total damage to plant; 0=no damage to plant): 4

## O=S1(=O)C(c2cc(F)c(Cl)cc2Cl)=C(O)c2nccnc2N1CC(F)F [Compound D25]
Amaranthus retroflexus
  AMARE damage score (10=total damage to plant; 0=no damage to plant): 10
Setaria faberi
  SETFA damage score (10=total damage to plant; 0=no damage to plant): 4
Solanum nigrum
  SOLNI damage score (10=total damage to plant; 0=no damage to plant): 10
Echinochloa crus-galli
  ECHCG damage score (10=total damage to plant; 0=no damage to plant): 3
Ipomea hederaceae
  IPOHE damage score (10=total damage to plant; 0=no damage to plant): 9

## CC(C)C(=O)OC1=C(c2ccc(Cl)cc2Cl)S(=O)(=O)N(CC(F)(F)C(F)F)c2nccnc21 [Compound C122]
Amaranthus retroflexus
  AMARE damage score (10=total damage to plant; 0=no damage to plant): 5
Setaria faberi
  SETFA damage score (10=total damage to plant; 0=no damage to plant): 3
Solanum nigrum
  SOLNI damage score (10=total damage to plant; 0=no damage to plant): 9
Echinochloa crus-galli
  ECHCG damage score (10=total damage to plant; 0=no damage to plant): 2
Ipomea hederaceae
  IPOHE damage score (10=total damage to plant; 0=no damage to plant): 6

## Cc1ccc(C(F)(F)F)c(C2=C(OC(=O)C(C)C)c3nccnc3N(CC(F)F)S2(=O)=O)c1 [Compound C146]
Amaranthus retroflexus
  AMARE damage score (10=total damage to plant; 0=no damage to plant): 8
Setaria faberi
  SETFA damage score (10=total damage to plant; 0=no damage to plant): 2
Solanum nigrum
  SOLNI damage score (10=total damage to plant; 0=no damage to plant): 7
Echinochloa crus-galli
  ECHCG damage score (10=total damage to plant; 0=no damage to plant): 4
Ipomea hederaceae
  IPOHE damage score (10=total damage to plant; 0=no damage to plant): 9

## CC(C)C(=O)OC1=C(c2ccc(Cl)cc2Cl)S(=O)(=O)N(CCF)c2nccnc21 [Compound C58, isobutyric acid 3-(2,4-dichloro-phenyl)-1-(2-fluoroethyl)-2,2-dioxo-1,2-dihydro-2-λ-6-thia-1,5,8-triaza-naphthalen-4-yl ester]
Amaranthus retroflexus
  AMARE damage score (10=total damage to plant; 0=no damage to plant): 10
Setaria faberi
  SETFA damage score (10=total damage to plant; 0=no damage to plant): 4
Solanum nigrum
  SOLNI damage score (10=total damage to plant; 0=no damage to plant): 9
Echinochloa crus-galli
  ECHCG damage score (10=total damage to plant; 0=no damage to plant): 6
Ipomea hederaceae
  IPOHE damage score (10=total damage to plant; 0=no damage to plant): 9

## CCN1c2nccnc2C(OC(=O)C(C)(C)C)=C(c2cccc(Cl)c2Cl)S1(=O)=O [Compound C98]
Amaranthus retroflexus
  AMARE damage score (10=total damage to plant; 0=no damage to plant): 0
Setaria faberi
  SETFA damage score (10=total damage to plant; 0=no damage to plant): 0
Solanum nigrum
  SOLNI damage score (10=total damage to plant; 0=no damage to plant): 3
Echinochloa crus-galli
  ECHCG damage score (10=total damage to plant; 0=no damage to plant): 0
Ipomea hederaceae
  IPOHE damage score (10=total damage to plant; 0=no damage to plant): 0

## CCN1c2nccnc2C(OC(=O)C(C)C)=C(c2c(Cl)ccc(Cl)c2C(F)(F)F)S1(=O)=O [Compound C50]
Amaranthus retroflexus
  AMARE damage score (10=total damage to plant; 0=no damage to plant): 5
Setaria faberi
  SETFA damage score (10=total damage to plant; 0=no damage to plant): 4
Solanum nigrum
  SOLNI damage score (10=total damage to plant; 0=no damage to plant): 6
Echinochloa crus-galli
  ECHCG damage score (10=total damage to plant; 0=no damage to plant): 5
Ipomea hederaceae
  IPOHE damage score (10=total damage to plant; 0=no damage to plant): 7

## CC(C)C(=O)OC1=C(c2cc(Cl)cc(C(F)(F)F)c2)S(=O)(=O)N(CC(F)F)c2nccnc21 [Compound C149]
Amaranthus retroflexus
  AMARE damage score (10=total damage to plant; 0=no damage to plant): 10
Setaria faberi
  SETFA damage score (10=total damage to plant; 0=no damage to plant): 0
Solanum nigrum
  SOLNI damage score (10=total damage to plant; 0=no damage to plant): 8
Echinochloa crus-galli
  ECHCG damage score (10=total damage to plant; 0=no damage to plant): 0
Ipomea hederaceae
  IPOHE damage score (10=total damage to plant; 0=no damage to plant): 0

## CC(C)(C)C(=O)OC1=C(c2cc(-c3cccc(Cl)c3)ccc2Cl)S(=O)(=O)N(CC(F)F)c2nccnc21 [Compound C56]
Amaranthus retroflexus
  AMARE damage score (10=total damage to plant; 0=no damage to plant): 10
Setaria faberi
  SETFA damage score (10=total damage to plant; 0=no damage to plant): 0
Solanum nigrum
  SOLNI damage score (10=total damage to plant; 0=no damage to plant): 2
Echinochloa crus-galli
  ECHCG damage score (10=total damage to plant; 0=no damage to plant): 0
Ipomea hederaceae
  IPOHE damage score (10=total damage to plant; 0=no damage to plant): 0

## CCN1c2nccnc2C(OS(=O)(=O)C(F)(F)F)=C(c2ccc(Cl)cc2C(F)(F)F)S1(=O)=O [Compound C29, trifluoromethanesulfonic acid-3-(4-chloro-2-trifluoromethylphenyl)-1-ethyl-2,2-dioxo-1,2-dihydro-2-λ-6-thia-1,5,8-triaza-naphthalen-4-yl ester]
Amaranthus retroflexus
  AMARE damage score (10=total damage to plant; 0=no damage to plant): 2
Setaria faberi
  SETFA damage score (10=total damage to plant; 0=no damage to plant): 0
Solanum nigrum
  SOLNI damage score (10=total damage to plant; 0=no damage to plant): 5
Echinochloa crus-galli
  ECHCG damage score (10=total damage to plant; 0=no damage to plant): 4
Ipomea hederaceae
  IPOHE damage score (10=total damage to plant; 0=no damage to plant): 5

## CC(C)(C)C(=O)OC1=C(c2c(Cl)ccc(Cl)c2C(F)(F)F)S(=O)(=O)N(CC(F)F)c2nccnc21 [Compound C52]
Amaranthus retroflexus
  AMARE damage score (10=total damage to plant; 0=no damage to plant): 9
Setaria faberi
  SETFA damage score (10=total damage to plant; 0=no damage to plant): 8
Solanum nigrum
  SOLNI damage score (10=total damage to plant; 0=no damage to plant): 8
Echinochloa crus-galli
  ECHCG damage score (10=total damage to plant; 0=no damage to plant): 7
Ipomea hederaceae
  IPOHE damage score (10=total damage to plant; 0=no damage to plant): 10

## O=S1(=O)C(c2c(F)ccc(Cl)c2Cl)=C(O)c2nccnc2N1CC(F)F [Compound D9, 3-(2,3-dichloro-6-fluoro-phenyl)-1-(2,2-difluoro-ethyl)-2,2-dioxo-1,2-dihydro-2-λ-6-thia-1,5,8-triaza-naphthalen-4-ol]
Amaranthus retroflexus
  AMARE damage score (10=total damage to plant; 0=no damage to plant): 9
Setaria faberi
  SETFA damage score (10=total damage to plant; 0=no damage to plant): 2
Solanum nigrum
  SOLNI damage score (10=total damage to plant; 0=no damage to plant): 10
Echinochloa crus-galli
  ECHCG damage score (10=total damage to plant; 0=no damage to plant): 4
Ipomea hederaceae
  IPOHE damage score (10=total damage to plant; 0=no damage to plant): 10

## CCSC(=O)OC1=C(c2ccccc2I)S(=O)(=O)N(CC(F)F)c2nccnc21 [Compound C82]
Amaranthus retroflexus
  AMARE damage score (10=total damage to plant; 0=no damage to plant): 10
Setaria faberi
  SETFA damage score (10=total damage to plant; 0=no damage to plant): 8
Solanum nigrum
  SOLNI damage score (10=total damage to plant; 0=no damage to plant): 10
Echinochloa crus-galli
  ECHCG damage score (10=total damage to plant; 0=no damage to plant): 9
Ipomea hederaceae
  IPOHE damage score (10=total damage to plant; 0=no damage to plant): 10
